Results as given in patent publication US8163160B2, “Biosensor having improved hematocrit and oxygen biases” (Abbott Diabetes Care Inc., priority 2002, dated 2012).
Converted amounts (≈) assume the structure as drawn.

Experiment: Solubility tests in water
Format: physicochemical
Method: Solubility tests in water were performed on the new redox mediators in comparison with the standard PQ mediators.

Structure (SMILES)	Solubility in Water (percent)	solubility [µg/mL]	Solubility in Water [µg/mL]
O=C1C(=O)c2cccnc2-c2ncccc21 [PQ, 1,10-phenanthroline-5,6-dione, reference compound]	mg/ml (0.2%)	2000 (≈ 9.52 mM)	–
O=C1C(=O)c2cccnc2-c2ncccc21.O=C1C(=O)c2cccnc2-c2ncccc21.O=C1C(=O)c2cccnc2-c2ncccc21.[Ni+2].[O-][Cl+3]([O-])([O-])[O-].[O-][Cl+3]([O-])([O-])[O-] [[Ni(PQ)3](ClO4)2]	mg/ml (<0.05%)	–	<500
CC(=O)[O-].CC(=O)[O-].O=C1C(=O)c2cccnc2-c2ncccc21.O=C1C(=O)c2cccnc2-c2ncccc21.O=C1C(=O)c2cccnc2-c2ncccc21.[Ni+2] [[Ni(PQ)3](O2CCH3)2]	mg/ml (>50%)	–	>500000
